Results on two molecules are retold here after paper PMC9697349, “Mouse Pharmacokinetics and In Vitro Metabolism of SH-11037 and SH-11008, Synthetic Homoisoflavonoids for Retinal Neovascularization” (Pharmaceutics, 2022).

Data set [1] can be described thus: Metabolic stability of SH-11008 in mouse liver S9 fractions. The class given is in vitro ADME. The procedure: For studies using NADPH or PAPS as a cofactor, 4 μL of SH-11008 (40 μM) solution in 40 vol% CH3CN were mixed with 40 μL of 4 mg protein/mL HLS9 or MLS9 fractions diluted in 0.1 M potassium phosphate buffer (pH 7.4) and 100 μL of 0.1 M potassium phosphate buffer (pH 7.4). When using UDPGA as a cofactor, 32 μL of UGT Reaction Mix Solution B and 68 μL of de-ionized water were used instead of 100 μL of 0.1 M potassium phosphate buffer (pH 7.4). The mixture was warmed at 37 °C for 5 min. The reaction was then initiated by adding 16 μL of 10 mM cofactor dissolved in de-ionized water. The assay condition for UDPGA was used for metabolic stability studies conducted with a mixture of the three cofactors. The reaction was terminated at selected times by adding 160 μL of ice-cold CH3CN containing glipizide (500 ng/mL) as the IS. The resulting mixture was vortexed, sonicated, and centrifuged at 3000× g for 20 min. Aliquots of the supernatant were subjected to LC-MS/MS analysis described below in Section 2.6.2.
(§1) The LC-MS/MS system consisted of Agilent 1290 Infinity HPLC system and Agilent 6530 Accurate-Mass Quadrupole Time-of-Flight (Q-TOF) mass spectrometer equipped with dual AJS ESI ion source (Agilent Technologies Korea, Seoul, Korea). Chromatographic separation was performed on an Agilent Eclipse Plus C18 column (2.1 × 100 mm, 3.5 μm) with a Phenomenex Security Guard C18 guard column (4 × 20 mm) maintained at 40 °C. The mobile phase consisted of 0.1% formic acid in deionized water (A) and 0.1% formic acid in CH3CN (B): 0~2 min 5% B, 2~7 min to 95% B, and 7~10 min 95% B. Total run time including a 5 min equilibration time was 15 min. The flow rate was 0.4 mL/min. The injection volume was 5 µL. The mass spectrometer was operated in a positive Auto MS/MS scan mode with a full scan mass range of m/z 100–1000, fragmentor voltage 150 V, and CE 30 eV, selecting the two most intense precursor ions for collision-induced dissociation. Putative metabolites were identified using Agilent Mass Hunter Metabolite ID software (ver.B.04.00) followed by manual interpretation of the spectral data. Chromatograms and mass spectra were extracted using Agilent Mass Hunter Qualitative Analysis software (ver. B.05.00).
Pharmacokinetic parameters were calculated by noncompartmental analysis of plasma concentration versus time profiles using PKSolver. The scaling factors of mice and human, half-life (t1/2), intrinsic clearance (CLint), hepatic clearance (CLH), and hepatic extraction ratio (EH) were from the in vitro studies as described previously. […] The fraction of parent drug converted to the metabolite (fm) was calculated as follows:fm (%) = (AUC(m) × CL(m))/D × MWparent/MWmetabolite × 100,(1) where D is dose of the parent drug, AUC(m) is area under the curve for the metabolite after a dose of parent drug, CL(m) is CL of metabolite, and MW is molecular weight.

Data set [2] is described as follows: Stability of SH-11037 in human plasma. The class given is in vitro ADME. The following applies: pH 7.4, SH-11037 1 µM, 37 °C, read-out: half-life (t1/2) of hydrolysis to SH-11008. As for the experimental part:
SH-11037 (1 μM) was incubated in triplicate in 0.1 M phosphate buffer (pH 7.4) or in mouse, dog, and human plasma to investigate its stability. SH-11037 (40 μM) in 50 vol% aqueous CH3CN was mixed with 0.1 M phosphate buffer (pH 7.4) or plasma diluted 3-fold with 0.1 M phosphate buffer (pH 7.4) to a final volume of 160 μL and a final concentration of 1 μM. The resulting solutions were then incubated at 37 °C in a shaking water bath. The incubations were terminated at selected times by adding 160 µL of ice-cold CH3CN containing glipizide (500 ng/mL) as the internal standard (IS). The resulting mixture was vortexed, sonicated, and centrifuged at 3000× g for 20 min. Aliquots of the supernatant were subjected to LC-MS/MS analysis described below in Section 2.6.2.
The LC-MS/MS system consisted of Agilent 1290 Infinity HPLC system and Agilent 6530 Accurate-Mass Quadrupole Time-of-Flight (Q-TOF) mass spectrometer equipped with dual AJS ESI ion source (Agilent Technologies Korea, Seoul, Korea). Chromatographic separation was performed on an Agilent Eclipse Plus C18 column (2.1 × 100 mm, 3.5 μm) with a Phenomenex Security Guard C18 guard column (4 × 20 mm) maintained at 40 °C. The mobile phase consisted of 0.1% formic acid in deionized water (A) and 0.1% formic acid in CH3CN (B): 0~2 min 5% B, 2~7 min to 95% B, and 7~10 min 95% B. Total run time including a 5 min equilibration time was 15 min. […]

Data set [3] concerns hydrolysis of SH-11037 in mouse plasma. The class given is in vitro ADME. Conditions: ICR, mouse, 1 min, 1 µM, pH 7.4. As for the experimental part:
(§2) Chemical inhibition assay was conducted in mouse, dog, and human plasma and mouse eye homogenate to identify the enzyme(s) involved in the hydrolysis of SH-11037. BW284c51 [16], DTNB [17], EPZ [18], and BNPP [19, 20] were used as selective inhibitors of acetylcholinesterase (AChE), paraoxonase 1 (PON1), butyrylcholinesterase (BchE), and carboxylesterase (CES), respectively. Mouse eyes (male ICR mouse, 8 weeks old) taken immediately after CO2 asphyxiation were homogenized by an electric tissue homogenizer (Tissue Master-125, Omni International, Kennesaw, GA, USA) in an equal amount of 0.1 M potassium phosphate buffer (pH 7.4) on ice. The resulting homogenate was then centrifuged at 3000× g for 20 min. The supernatant was stored at −80 °C until the experiment. DMSO stock solutions of the inhibitors (0.4, 4 and 40 mM) were mixed with plasma diluted 3-fold with 0.1 M phosphate buffer (pH 7.4) to a final volume of 160 μL and final inhibitor concentrations of 0.01, 0.1, and 1 mM. The supernatant of mouse eye homogenate was treated similarly with only BNPP as the inhibitor and a single inhibitor concentration of 1 mM. The resulting pre-incubation solutions were then incubated for 2 h at 37 °C in a shaking water bath. SH-11037 (40 μM) in 50 vol% aqueous CH3CN was mixed with the pre-incubation solutions to a final volume of 160 μL and a final concentration of 1 μM. The resulting solutions were then incubated at 37 °C in a shaking water bath. The incubations were terminated at selected times by adding 160 µL of ice-cold CH3CN containing glipizide (500 ng/mL) as the IS. The resulting mixture was vortexed, sonicated, and centrifuged at 3000× g for 20 min. Aliquots of the supernatant were subjected to LC-MS/MS analysis described below in Section 2.6.2.
as §1

Data set [4] is classed as in vitro ADME. The following applies: male, ICR, mouse, 1 min, 1 µM, pH 7.4. The procedure: as §2, §1
Data set [5] relates to hydrolysis of SH-11037 in dog plasma. The class given is in vitro ADME. The following applies: beagle, 2 h, 1 µM, pH 7.4. As for the experimental part: as §2, §1

Regarding `COc1ccc(CC2COc3cc(OC)c(OC)c(OC)c3C2=O)cc1O` (stereo not drawn) [SH-11008], the CLint scaled at 1 µM in data set [1] (CD-1, liver S9 fractions, pH 7.4, mouse, scaled from in vitro t1/2 in MLS9) worked out at 1510 mL/min/kg. For the same molecule, the half-life at 1 µM in data set [1] (CD-1, mouse, liver S9 fractions, SH-11008 1 µM, MLS9 1 mg protein/mL, mixture of NADPH, UDPGA and PAPS (1 mM), 37 °C) stood at 5.7 min. The “metabolic stability with cofactor added individually” value in data set [1] (MLS9, NADPH, UDPGA or PAPS 1 mM individually, 30 min) is on record as “metabolized rapidly”. In data set [1] (mouse, predicted hepatic extraction ratio from MLS9 data), the EH is given as 0.94. Moreover, the CLH in data set [1] (mouse, predicted with the well-stirred model from MLS9 data) is 84.9 mL/min/kg.

`COc1ccc(CC2COc3cc(OC)c(OC)c(OC)c3C2=O)cc1OC(=O)[C@H](Cc1ccccc1)NC(=O)OC(C)(C)C` (stereo partly drawn) [SH-11037]: the half-life at 1 µM in data set [2] worked out at 73.2 min. The “SH-11008 Formation (%), % of SH-11037 converted to SH-11008” value in data set [3] came to 98.3 ± 2.8%; in data set [5], 91.7 ± 1.2%. The “SH-11037 converted to SH-11008” value in data set [4] is listed as ~ 90%.
